# Earlier results, collected in patent publication US8247348B1, “Method of preserving cut plant material” (priority 2007, dated 2012).
Compound,type of antifungal action (fungi),pH at which effective (fungi; effective only in acidic conditions),"amount that can be lethal (humans; adults, as little as (2 tablespoons)) [milliliters]",estimated LD100 (humans; in humans)
O=C([O-])c1ccccc1.[Na+] [Sodium benzoate],fungistatic not fungicidal,< 4.5,,
OCCO [Ethylene glycol],,,30,approximately 1.4 ml/kg
